ChEMBL document CHEMBL3714716, “Modulators of the relaxin receptor 1” (2015)
Calls of active or inactive are those of the source. The calls are words filed in the database; no cut-off is given here.

Tests used:
[1] = target: T1, Uncharacterized protein (Sus scrofa) (UniProt F1RW91); test: Agonist activity at pig RXFP1 receptor assessed as stimulation of cAMP production incubated for 30 mins by TR-FRET based HTRF assay; assay type: functional
T1 sequence (whole entry): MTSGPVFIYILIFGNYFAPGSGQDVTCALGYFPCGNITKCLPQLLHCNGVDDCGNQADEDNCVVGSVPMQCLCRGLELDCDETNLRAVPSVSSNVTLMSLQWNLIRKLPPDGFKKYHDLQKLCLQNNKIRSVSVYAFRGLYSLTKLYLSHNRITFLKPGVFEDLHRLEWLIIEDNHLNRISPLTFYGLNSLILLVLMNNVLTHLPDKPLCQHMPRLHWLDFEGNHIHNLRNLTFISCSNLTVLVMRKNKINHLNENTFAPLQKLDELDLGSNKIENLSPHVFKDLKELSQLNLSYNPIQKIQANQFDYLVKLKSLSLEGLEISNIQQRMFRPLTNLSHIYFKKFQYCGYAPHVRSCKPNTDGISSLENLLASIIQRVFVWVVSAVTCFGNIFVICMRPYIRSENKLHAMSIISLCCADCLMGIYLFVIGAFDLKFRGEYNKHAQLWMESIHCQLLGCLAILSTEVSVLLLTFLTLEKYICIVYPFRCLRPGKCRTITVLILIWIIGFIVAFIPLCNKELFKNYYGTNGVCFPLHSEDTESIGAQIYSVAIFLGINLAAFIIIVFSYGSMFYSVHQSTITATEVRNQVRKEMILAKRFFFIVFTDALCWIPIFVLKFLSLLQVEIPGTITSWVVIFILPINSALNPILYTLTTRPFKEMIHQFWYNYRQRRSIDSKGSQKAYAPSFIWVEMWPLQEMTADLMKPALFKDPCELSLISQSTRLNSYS

[2] = target: Relaxin receptor 2 (Mus musculus) (UniProt Q91ZZ5); test: Agonist activity at mouse RXFP2 receptor expressed in HEK293 cells assessed as stimulation of cAMP production incubated for 30 mins by TR-FRET based HTRF assay; assay type: functional, cell-based
Chain of Relaxin receptor 2 (Mus musculus) (Q91ZZ5 whole entry): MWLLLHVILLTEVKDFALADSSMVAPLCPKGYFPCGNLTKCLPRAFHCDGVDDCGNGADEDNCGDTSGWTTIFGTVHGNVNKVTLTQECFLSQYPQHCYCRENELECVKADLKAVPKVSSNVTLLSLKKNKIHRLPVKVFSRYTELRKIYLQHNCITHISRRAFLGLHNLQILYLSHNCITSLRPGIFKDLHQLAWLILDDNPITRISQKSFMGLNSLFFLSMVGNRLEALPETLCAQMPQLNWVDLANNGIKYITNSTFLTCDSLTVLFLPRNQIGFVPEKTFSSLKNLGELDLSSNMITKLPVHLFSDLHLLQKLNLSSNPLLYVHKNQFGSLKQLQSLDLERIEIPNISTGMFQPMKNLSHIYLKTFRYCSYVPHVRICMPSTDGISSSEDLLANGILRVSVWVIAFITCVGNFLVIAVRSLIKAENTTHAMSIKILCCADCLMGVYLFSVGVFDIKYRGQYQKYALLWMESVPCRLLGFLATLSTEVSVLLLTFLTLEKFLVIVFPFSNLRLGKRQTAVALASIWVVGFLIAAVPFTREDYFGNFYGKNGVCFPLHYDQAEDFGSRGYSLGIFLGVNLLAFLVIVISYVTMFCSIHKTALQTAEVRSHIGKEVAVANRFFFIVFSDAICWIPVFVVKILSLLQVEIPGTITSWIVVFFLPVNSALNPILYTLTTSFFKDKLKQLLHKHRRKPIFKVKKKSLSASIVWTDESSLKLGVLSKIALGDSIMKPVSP

[3] = target: T2, Relaxin receptor 1 (Macaca mulatta) (UniProt I2CTQ4); test: Agonist activity at monkey RXFP1 receptor assessed as stimulation of cAMP production incubated for 30 mins by TR-FRET based HTRF assay; assay type: functional
T2 sequence (whole entry): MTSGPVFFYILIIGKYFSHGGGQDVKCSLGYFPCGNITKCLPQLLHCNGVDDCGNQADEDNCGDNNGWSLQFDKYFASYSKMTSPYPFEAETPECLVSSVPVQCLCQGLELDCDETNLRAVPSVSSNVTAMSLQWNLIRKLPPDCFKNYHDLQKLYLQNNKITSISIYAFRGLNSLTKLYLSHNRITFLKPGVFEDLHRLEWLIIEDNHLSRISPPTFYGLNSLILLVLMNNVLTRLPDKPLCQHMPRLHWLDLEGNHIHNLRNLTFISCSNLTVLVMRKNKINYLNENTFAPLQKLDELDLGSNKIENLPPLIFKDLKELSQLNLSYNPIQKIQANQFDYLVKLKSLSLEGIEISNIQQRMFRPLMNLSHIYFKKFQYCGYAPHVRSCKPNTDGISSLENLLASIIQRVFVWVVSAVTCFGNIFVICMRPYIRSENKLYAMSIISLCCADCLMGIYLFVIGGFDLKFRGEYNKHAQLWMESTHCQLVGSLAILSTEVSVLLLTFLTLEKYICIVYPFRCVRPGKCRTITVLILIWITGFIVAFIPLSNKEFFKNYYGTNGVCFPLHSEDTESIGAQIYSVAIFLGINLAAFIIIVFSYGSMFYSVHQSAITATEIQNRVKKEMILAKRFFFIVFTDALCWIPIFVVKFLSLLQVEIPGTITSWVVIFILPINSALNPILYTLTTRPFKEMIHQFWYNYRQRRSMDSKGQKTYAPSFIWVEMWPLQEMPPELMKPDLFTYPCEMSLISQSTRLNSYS

Heart [4] = test: AUMClast in C57/BL6 mouse heart at 3 mg/kg, iv administered as single dose; assay type: ADME, organism-based; settings: in vivo
Plasma [5] = test: AUMClast in C57/BL6 mouse plasma at 3 mg/kg, iv administered as single dose; assay type: ADME, organism-based; settings: in vivo
[6] = Initial plasma concentration in C57/BL6 mouse plasma at 3 mg/kg, iv administered as single dose; assay type: ADME, organism-based
Plasma [7] = test: AUMClast in C57/BL6 mouse plasma at 30 mg/kg, po administered as single dose; assay type: ADME, organism-based; settings: in vivo
[8] = Tmax in C57/BL6 mouse heart at 30 mg/kg, po administered as single dose; assay type: ADME, organism-based
[9] = target: T3, Relaxin receptor 1 (Mus musculus) (UniProt Q6R6I7); test: Agonist activity at mouse RXFP1 receptor M11 Asp659Gly and Ser660Thr mutant expressed in HEK293 cells assessed as stimulation of cAMP production at 66 uM incubated for 30 mins by TR-FRET based HTRF assay relative to relaxin; assay type: functional, cell-based; parameters: scale not given: the % may be the effect or the level left
T3 sequence (whole entry): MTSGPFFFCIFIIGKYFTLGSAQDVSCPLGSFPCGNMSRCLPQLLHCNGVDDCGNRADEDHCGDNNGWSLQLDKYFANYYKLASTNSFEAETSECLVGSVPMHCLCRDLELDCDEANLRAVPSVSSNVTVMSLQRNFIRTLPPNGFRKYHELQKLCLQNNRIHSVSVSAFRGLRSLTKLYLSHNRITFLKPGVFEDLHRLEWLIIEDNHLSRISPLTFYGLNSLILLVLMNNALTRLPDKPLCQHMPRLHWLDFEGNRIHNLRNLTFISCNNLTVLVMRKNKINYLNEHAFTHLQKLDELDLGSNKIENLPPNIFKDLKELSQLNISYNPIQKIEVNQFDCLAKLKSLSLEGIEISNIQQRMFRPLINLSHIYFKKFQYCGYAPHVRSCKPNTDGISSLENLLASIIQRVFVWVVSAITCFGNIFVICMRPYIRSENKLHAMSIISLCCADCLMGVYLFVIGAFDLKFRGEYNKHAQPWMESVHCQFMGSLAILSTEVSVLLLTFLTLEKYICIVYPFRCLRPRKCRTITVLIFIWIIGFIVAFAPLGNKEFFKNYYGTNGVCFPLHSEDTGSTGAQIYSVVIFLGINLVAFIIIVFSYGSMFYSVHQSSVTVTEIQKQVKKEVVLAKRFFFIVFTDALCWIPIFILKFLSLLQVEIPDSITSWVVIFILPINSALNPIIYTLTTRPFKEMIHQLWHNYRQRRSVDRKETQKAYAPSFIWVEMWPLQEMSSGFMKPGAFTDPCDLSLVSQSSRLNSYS

[10] = Tmax in C57/BL6 mouse plasma at 30 mg/kg, po administered as single dose; assay type: ADME, organism-based
[11] = target: T3, Relaxin receptor 1 (Mus musculus); test: Agonist activity at mouse RXFP1 receptor M10 Ile646Val and Leu647Val mutant expressed in HEK293 cells assessed as stimulation of cAMP production incubated for 30 mins by TR-FRET based HTRF assay; assay type: functional, cell-based
[12] = target: T3, Relaxin receptor 1 (Mus musculus); test: Agonist activity at mouse RXFP1 receptor expressed in HEK293 cells assessed as stimulation of cAMP production incubated for 30 mins by TR-FRET based HTRF assay; assay type: functional, cell-based
[13] = Cmax in C57/BL6 mouse plasma at 30 mg/kg, po administered as single dose; assay type: ADME, organism-based; parameters: dose 30 mg/kg, route oral
Heart [14] = test: AUMClast in C57/BL6 mouse heart at 30 mg/kg, po administered as single dose; assay type: ADME, organism-based; settings: in vivo

In the case of `CC(C)Oc1ccccc1C(=O)Nc1ccccc1C(=O)Nc1cccc(S(=O)(=O)C(F)(F)F)c1`, the Activity [1] is reported as “Active”, the Activity [2] is reported as “inactive” and the Activity [3] is reported as “Active”. For the same compound, the AUMClast (Heart [4]) was 28300 hr.hr.ng/ml, the AUMClast (Plasma [5]) was 3110 hr.hr.ng/ml and the C0 [6] was 499 ng/mL. For the same compound, the AUMClast (Plasma [7]) was 2990 hr.hr.ng/ml, the Tmax [8] was 1.5 h and the Activity [9] was 44.4%. For the same compound, the Tmax [10] was 0.5 h, the Activity [11] was “inactive” and the Activity [12] was “inactive”. For the same compound, the Cmax [13] was 306 ng/mL and the AUMClast (Heart [14]) was 5780 hr.hr.ng/ml.
